Source: PMC8536124 (International Journal of Molecular Sciences, 2021)

Assays:
Assay in all cases: NCI-60 screening (SRB)
Type in all cases: cell-based, human
HCT-116 = conditions: five-dose; for GI50 / CC50: Homo sapiens; for CC50: read-out: LC50 (the source's name)
UACC-62 = conditions: five-dose; for GI50 / CC50: Homo sapiens; for CC50: read-out: LC50 (the source's name)
BT-549 = conditions: five-dose; for GI50 / CC50: Homo sapiens; for CC50: read-out: LC50 (the source's name)
LOX IMVI = conditions: for GI50 / CC50: Homo sapiens; for GI50 / CC50 / TGI: LOX IMVI, five-dose; for CC50: read-out: LC50 (the source's name)
OVCAR-5 = conditions: five-dose; for GI50 / CC50: Homo sapiens; for CC50: read-out: LC50 (the source's name)
U251 = conditions: for GI50 / CC50: Homo sapiens, U-251; for GI50 / CC50 / TGI: U251, five-dose; for CC50: read-out: LC50 (the source's name)
IGROV1 = conditions: for GI50 / CC50: Homo sapiens, IGROV-1, five-dose; for CC50: read-out: LC50 (the source's name); for TGI: five-dose
MALME-3M = conditions: for GI50 / CC50: Homo sapiens; for GI50 / CC50 / TGI: MALME-3M, five-dose; for CC50: read-out: LC50 (the source's name)
786-0 = conditions: five-dose; for GI50 / CC50: Homo sapiens; for CC50: read-out: LC50 (the source's name)
KM12 = conditions: five-dose; for GI50 / CC50: Homo sapiens; for CC50: read-out: LC50 (the source's name)
RXF 393 = conditions: five-dose; for GI50 / CC50: Homo sapiens; for CC50: read-out: LC50 (the source's name)
SK-MEL-28 = conditions: for GI50 / CC50: Homo sapiens; for GI50 / CC50 / TGI: five-dose; for CC50: read-out: LC50 (the source's name)
NCI-H226 = conditions: five-dose
HS 578T = conditions: five-dose; for GI50 / CC50: Homo sapiens; for CC50: read-out: LC50 (the source's name)
OVCAR-4 = conditions: five-dose; for GI50 / CC50: Homo sapiens; for CC50: read-out: LC50 (the source's name)
A549/ATCC = conditions: five-dose; for GI50 / CC50: Homo sapiens; for CC50: read-out: LC50 (the source's name)
CAKI-1 = conditions: CAKI-1, five-dose; for GI50 / CC50: Homo sapiens; for CC50: read-out: LC50 (the source's name)
PC-3 = conditions: five-dose; for GI50 / CC50: Homo sapiens; for CC50: read-out: LC50 (the source's name)
NCI-H23 = conditions: five-dose; for GI50 / CC50: Homo sapiens; for CC50: read-out: LC50 (the source's name)
NCI-H322M = conditions: five-dose; for GI50 / CC50: Homo sapiens; for CC50: read-out: LC50 (the source's name)
OVCAR-8 = conditions: five-dose; for GI50 / CC50: Homo sapiens; for CC50: read-out: LC50 (the source's name)
NCI-H522 = conditions: five-dose; for GI50 / CC50: Homo sapiens; for CC50: read-out: LC50 (the source's name)
HL-60(TB) = conditions: HL-60(TB), five-dose; for GI50 / CC50: Homo sapiens; for CC50: read-out: LC50 (the source's name)
UO-31 = conditions: five-dose; for GI50 / CC50: Homo sapiens; for CC50: read-out: LC50 (the source's name)
SF-268 = conditions: five-dose; for GI50 / CC50: Homo sapiens; for CC50: read-out: LC50 (the source's name)
TK-10 = conditions: five-dose; for GI50 / CC50: Homo sapiens; for CC50: read-out: LC50 (the source's name)
ACHN = conditions: five-dose; for GI50 / LC50: Homo sapiens
SK-MEL-2 = conditions: five-dose; for GI50 / CC50: Homo sapiens; for CC50: read-out: LC50 (the source's name)
SK-OV-3 = conditions: five-dose; for GI50 / CC50: Homo sapiens; for CC50: read-out: LC50 (the source's name)
UACC-257 = conditions: five-dose; for GI50 / CC50: Homo sapiens; for CC50: read-out: LC50 (the source's name)
K-562 = conditions: for GI50 / CC50: Homo sapiens, K562, five-dose; for CC50: read-out: LC50 (the source's name); for TGI: five-dose
SNB-19 = conditions: five-dose; for GI50 / CC50: Homo sapiens; for CC50: read-out: LC50 (the source's name)
MCF7 = conditions: five-dose; for GI50 / CC50: Homo sapiens; for CC50: read-out: LC50 (the source's name)
HT29 = conditions: for GI50 / CC50: Homo sapiens, HT-29, five-dose; for CC50: read-out: LC50 (the source's name); for TGI: five-dose

## CCN1CCN(C(=O)[C@]23CC[C@@H](C)[C@H](C)[C@H]2C2=CC[C@@H]4[C@@]5(C)CCC(=O)C(C)(C)[C@@H]5CC[C@@]4(C)[C@]2(C)CC3)CC1 [Compound 4, N-(3-oxo-ursan-12-en-28-oyl)-ethylpiperazine]
HCT-116
  GI50: 798 nM
  CC50: 3090 nM
  TGI: 1570 nM
UACC-62
  GI50: 835 nM
  CC50: 3090 nM
  TGI: 1610 nM
BT-549
  GI50: 833 nM
  CC50: 3000 nM
  TGI: 1580 nM
LOX IMVI
  GI50: 821 nM
  CC50: 2800 nM
  TGI: 1520 nM
LOX IMVI; LOXIMVI (Melanoma), 1 dose 10 µM
  Growth %: −85.17%
OVCAR-5
  GI50: 907 nM
  CC50: 3870 nM
  TGI: 1870 nM
U251
  GI50: 854 nM
  CC50: 4000 nM
  TGI: 1850 nM
IGROV1
  GI50: 1040 nM
  CC50: 19100 nM
  TGI: 4850 nM
MALME-3M
  GI50: 807 nM
  CC50: 8840 nM
  TGI: 1510 nM
MALME-3M; MALME-3M (Melanoma), 1 dose 10 µM
  Growth %: −85.67%
786-0
  GI50: 814 nM
  CC50: 3560 nM
  TGI: 1700 nM
KM12
  GI50: 1030 nM
  CC50: 4790 nM
  TGI: 2220 nM
RXF 393
  GI50: 822 nM
  CC50: 3690 nM
  TGI: 1740 nM
SK-MEL-28; 1 dose 10 µM
  Growth %: −64.66%
SK-MEL-28
  GI50: 889 nM
  CC50: 3270 nM
  TGI: 1700 nM
NCI-H226; Homo sapiens
  GI50: 1780 nM
NCI-H226; Homo sapiens, read-out: LC50 (the source's name)
  CC50: 28700 nM
NCI-H226
  TGI: 7010 nM
HS 578T
  GI50: 1070 nM
  CC50: 26500 nM
  TGI: 2680 nM
OVCAR-4
  GI50: 1260 nM
  CC50: 18000 nM
  TGI: 4740 nM
A549/ATCC
  GI50: 1470 nM
  CC50: 21800 nM
  TGI: 5980 nM
CAKI-1
  TGI: 2960 nM
  GI50: 946 nM
  CC50: 11200 nM
PC-3
  GI50: 875 nM
  CC50: 18300 nM
  TGI: 3170 nM
NCI-H23
  GI50: 1080 nM
  CC50: 11600 nM
  TGI: 2900 nM
NCI-H322M
  GI50: 1570 nM
  CC50: 16800 nM
  TGI: 5430 nM
OVCAR-8
  GI50: 1100 nM
  CC50: 30100 nM
  TGI: 2890 nM
NCI-H522
  GI50: 831 nM
  CC50: 3690 nM
  TGI: 1750 nM
HL-60(TB)
  TGI: 2740 nM
  GI50: 976 nM
  CC50: > 50000 nM
UO-31
  GI50: 726 nM
  CC50: 2790 nM
  TGI: 1420 nM
SF-268
  GI50: 1770 nM
  CC50: 24600 nM
  TGI: 6490 nM
TK-10
  GI50: 1270 nM
  CC50: 20300 nM
  TGI: 4140 nM
ACHN
  GI50: 1330 nM
  LC50: 14800 nM
  TGI: 4380 nM
SK-MEL-2
  GI50: 1290 nM
  CC50: 16200 nM
  TGI: 3330 nM
SK-OV-3
  GI50: 1150 nM
  CC50: 17200 nM
  TGI: 4830 nM
UACC-257
  GI50: 985 nM
  CC50: 4880 nM
  TGI: 2190 nM
K-562
  GI50: 980 nM
  CC50: 4840 nM
  TGI: 2180 nM
SNB-19
  GI50: 849 nM
  CC50: 3470 nM
  TGI: 1720 nM
MCF7
  GI50: 892 nM
  CC50: 4630 nM
  TGI: 2030 nM
HT29
  GI50: 913 nM
  CC50: 4590 nM
  TGI: 2050 nM

## CCN1CCN(C(=O)[C@]23CCC(C)(C)C[C@H]2C2=CC[C@@H]4[C@@]5(C)C/C(=C/c6cccnc6)C(=O)C(C)(C)[C@@H]5CC[C@@]4(C)[C@]2(C)CC3)CC1 [Compound 6]
HCT-116
  GI50: 1010 nM
  CC50: 4890 nM
  TGI: 2220 nM
UACC-62
  GI50: 1280 nM
  CC50: 6230 nM
  TGI: 2830 nM
BT-549
  GI50: 1470 nM
  CC50: 5660 nM
  TGI: 2880 nM
LOX IMVI
  GI50: 1360 nM
  CC50: 5450 nM
  TGI: 2730 nM
OVCAR-5
  GI50: 1560 nM
  CC50: 7190 nM
  TGI: 3350 nM
U251
  GI50: 1580 nM
  CC50: 6130 nM
  TGI: 3110 nM
U251; U251 (CNS cancer), 1 dose 10 µM
  Growth %: −88.15%
IGROV1
  GI50: 1910 nM
  CC50: 9100 nM
  TGI: 4160 nM
MALME-3M
  GI50: 1530 nM
  CC50: 5540 nM
  TGI: 2910 nM
786-0
  GI50: 1600 nM
  CC50: 5910 nM
  TGI: 3080 nM
KM12
  GI50: 1580 nM
  CC50: 6750 nM
  TGI: 3260 nM
RXF 393
  GI50: 1420 nM
  CC50: 5410 nM
  TGI: 2770 nM
SK-MEL-28
  GI50: 1480 nM
  CC50: 5410 nM
  TGI: 2830 nM
NCI-H226; Homo sapiens
  GI50: 1760 nM
NCI-H226
  TGI: 3800 nM
HS 578T
  GI50: 1830 nM
  CC50: > 100000 nM
  TGI: 5370 nM
OVCAR-4
  GI50: 2170 nM
  CC50: 47800 nM
  TGI: 7850 nM
A549/ATCC
  GI50: 2620 nM
  CC50: > 100000 nM
  TGI: 13400 nM
CAKI-1
  TGI: 11800 nM
  GI50: 2080 nM
  CC50: 45300 nM
PC-3
  GI50: 1000 nM
  CC50: 7780 nM
  TGI: 2790 nM
NCI-H23
  GI50: 2100 nM
  CC50: 27800 nM
  TGI: 5850 nM
NCI-H322M
  GI50: 2870 nM
  CC50: 33900 nM
  TGI: 9250 nM
OVCAR-8
  GI50: 2140 nM
  CC50: > 100000 nM
  TGI: 5540 nM
NCI-H522
  GI50: 1610 nM
  CC50: 8730 nM
  TGI: 3750 nM
HL-60(TB)
  TGI: 9020 nM
  GI50: 2100 nM
  CC50: > 100000 nM
UO-31
  GI50: 1350 nM
  CC50: 5320 nM
  TGI: 2670 nM
SF-268
  GI50: 1590 nM
  CC50: 85700 nM
  TGI: 4790 nM
TK-10
  GI50: 3860 nM
  CC50: 54100 nM
  TGI: 15400 nM
ACHN
  GI50: 2600 nM
  LC50: 32400 nM
  TGI: 10500 nM
SK-MEL-2
  GI50: 1930 nM
  CC50: 8160 nM
  TGI: 3960 nM
SK-OV-3
  GI50: 4190 nM
  CC50: 76100 nM
UACC-257
  GI50: 1610 nM
  CC50: 33800 nM
  TGI: 4290 nM
K-562
  GI50: 443 nM
  CC50: > 100000 nM
  TGI: 3340 nM
SNB-19
  GI50: 1680 nM
  CC50: 7120 nM
  TGI: 3460 nM
MCF7
  GI50: 1400 nM
  CC50: 6710 nM
  TGI: 3070 nM
HT29
  GI50: 1710 nM
  CC50: 44500 nM
  TGI: 4670 nM
